From publication PMC10702411 (Nature structural & molecular biology, 2023)
Blank lines part the entries; values can stand above or below the compound they belong to.

Assays:
BIRC2BIR3 = BIRC2BIR3 (Homo sapiens, UniProt Q13490); assay: X-ray crystal structure of BIRC2BIR3 complex; assay type: binding; details: Supplementary Fig. 2
[1] = tested on: IFNγ stimulated ex vivo differentiated monocyte-derived macrophages; assay: cytokine antibody array, macrophages; assay type: cell-based, human; details: 10 μM embelin, IFNγ 24 h, supernatants; array in duplicate
[2] = tested on: mouse embryonic fibroblasts (MEFs); assay: MTT survival assay, MEF; assay type: cell-based; details: LCL161 and/or TNF, 24 h, three independent biological replicates
human glioma LN18 cells = assay: MTT survival assay, LN18; assay type: cell-based; details: LCL161 and/or TNF, 24 h, three independent biological replicates
[3] = tested on: BIRC2 and BIRC3 in HIV-TCM; assay: western blot of BIRC2 and BIRC3, HIV-TCM; assay type: cell-based, human; details: 100 nM LCL161, 4 h, n = 4
BIRC2 and BIRC3 in TCM = assay: western blot of BIRC2 and BIRC3, uninfected TCM; assay type: cell-based, human; details: uninfected cells (TCM), 100 nM LCL161, 4 h; n = 4
RIPK1 = RIPK1 ubiquitination and Ser166 phosphorylation; assay type: cell-based, human; details: 100 nM LCL161, 5 min (ubiquitination) or 4 h; n = 4
FAS DISC in TCM = assay: FAS DISC coimmunoprecipitation, TCM; assay type: cell-based, human; details: 100 nM LCL161, 4 h, co-IP, n = 4
[4] = tested on: caspase-3 and PARP1 in HIV-TCM; assay: western blot of caspase-3 and PARP1, HIV-TCM; assay type: cell-based, human; details: 100 nM LCL161, 4 h, n = 4
HIV-TCM [5] = assay: Cell Death Detection ELISA, HIV-TCM; assay type: cell-based, human; details: LCL161, 4 h, n = 4
HIV-TCM [6] = assay: annexin V / propidium iodide flow cytometry, HIV-TCM; assay type: cell-based, human; details: LCL161, Supplementary Fig. 8
HIV-TCM [7] = assay: LDH release assay, HIV-TCM; assay type: cell-based, human; details: LCL161, 4 h, n = 4
TCM = assay: apoptosis / cell death read-outs, uninfected TCM; assay type: cell-based, human; details: LCL161, 4 h
HIV-TCM [8] = assay: HIV-1 p24 antigen release; assay type: cell-based; details: Supplementary Fig. 7c,d
cancer cells = details: cited from earlier work
[9] = cited from earlier work
[10] = tested on: D320A and E325A mutants of BIRC2BIR3; assay: NMR and pulldown, BIRC2BIR3 D320A and E325A mutants; assay type: binding, human; details: NMR and pulldown (performed twice)
[11] = tested on: D234A and E239A mutants of BIRC2BIR2; assay: NMR and pulldown, BIRC2BIR2 D234A and E239A mutants; assay type: binding, human; details: NMR and pulldown (performed twice)
BIRC2_3BIR D234A/D320A = assay: pulldown, BIRC2_3BIR D234A/D320A; assay type: binding, human; details: D234A/D320A concurrently, performed twice

Sequence of BIRC2BIR3 (Q13490 261-346): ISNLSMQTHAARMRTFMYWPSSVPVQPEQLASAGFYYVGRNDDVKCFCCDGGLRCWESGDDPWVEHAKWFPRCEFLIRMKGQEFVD

Compound: AVPI [SMAC]
binding site in overlay of structures (BIRC2BIR3): occupy the same binding site of BIRC2BIR3

Compound: CCCCCCCCCCCC1=C(O)C(=O)C=C(O)C1=O [embelin]
interleukin-6 (IL-6) level [1]: increase of interleukin-6 (IL-6)

Compound: CN[C@@H](C)C(=O)N[C@H](C(=O)N1CCC[C@H]1c1nc(C(=O)c2ccc(F)cc2)cs1)C1CCCCC1 [LCL161]
sensitization to killing by TNF [2]: sensitized mouse embryonic fibroblasts (MEFs) and human glioma LN18 cells to killing by TNF | sensitization to killing by TNF (human glioma LN18 cells): sensitized mouse embryonic fibroblasts (MEFs) and human glioma LN18 cells to killing by TNF | degradation of BIRC2 and BIRC3 [3]: induced the rapid degradation of BIRC2 and BIRC3 | degradation of BIRC2 and BIRC3 (BIRC2 and BIRC3 in TCM): induced the rapid degradation of BIRC2 and BIRC3 | RIPK1 deubiquitination, phosphorylation and activation (RIPK1): deubiquitination and Ser166 phosphorylation and thus activation of RIPK1 | association of FADD, cFLIPS and Ser166 phosphorylated RIPK1 with FAS (FAS DISC in TCM): did not associate with FAS | caspase-3 cleavage [4]: cleavage of caspase-3 | cytoplasmic histone-associated DNA fragments (HIV-TCM [5]): increase in cytoplasmic histone-associated DNA fragments | phosphatidylserine translocation (HIV-TCM [6]): translocation of phosphatidylserine from the inner to the outer leaflet | plasma membrane permeabilization (HIV-TCM [6]): permeabilization of the plasma membrane | LDH release (HIV-TCM [7]): increase in lactate dehydrogenase (LDH) release | apoptosis / LDH release in uninfected cells (TCM): not in the uninfected cells | HIV-1 p24 antigen release (HIV-TCM [8]): not accompanied by an increase in HIV-1 p24 antigen release | anticancer activity (cancer cells; at least two dozen tumor types): potent anticancer activity in at least two dozen tumor types | sensitization of cancer cells to chemotherapy (cancer cells; with cisplatin and vincristine): sensitizes cancer cells to conventional chemotherapy with cisplatin and vincristine | antiproliferation and bioavailability properties ([9]; among SMAC mimetic compounds): one of the most promising antiproliferation and bioavailability properties | pharmacological properties [9]: favorable pharmacological properties | toxicity [9]: minor toxicity

binding to mutant domain [10]: abrogated binding | binding to mutant domain [11]: abrogated binding | binding to double mutant of triple BIR (BIRC2_3BIR D234A/D320A): disrupt binding
Compound: H3: N terminus of H3 (residues 1–22 of H3), histone peptide in pulldowns

binding to mutant domain [10]: abrogated binding | binding to mutant domain [11]: abrogated binding
Compound: H3T3ph: H3 peptide with phosphorylation of Thr3

Compound: ATPF [caspase-9]
binding site in overlay of structures (BIRC2BIR3): occupy the same binding site of BIRC2BIR3
